# US20130217646A1, “COMBINATION OF ALOVUDINE AND ZIDOVUDINE IN A MOLAR RATIO OF 1:100 TO 1:350” (MEDIVIR AB, priority 2006, published 2013)
# Where two headings read alike, the source gives them in different places.
# Test system: MT4 cell line
# Details: human, 14 days
# Experimental: Several suitable cell lines supporting HIV growth are readily available including lines include those supporting HIV growth including the CEM×174 cell line derived from Swedish Institute for Infectious Disease Control (SMI) Sweden, MT-4 (commercially available) and Hep G2 (commercially available).
# In short, 100 ul cells are seeded in a 96-well plate at a concentration of 1×10^4 cells/ml, at exponential growth were cultured in RPMI 1640 medium (from Gibco) supplemented with 10% heat-inactivated fetal bovine serum (from Gibco) and Penicillin-Streptomycin (from Gibco). The medium is changed every 3 or 4 days, and cells are subcultured once a week at a dilution of 1:10. All cultures are routinely checked for Mycoplasma infection and grown at 37° C. in a humidified 5% CO2 atmosphere.
# All drugs tested were first dissolved at 10 mM in dimethyl sulfoxide (DMSO) before further dilution to the appropriate concentration in the culture medium. The analysis of mitochondrial DNA was performed by using Taqman technology as previously reported (Zhang, H et al. Mol. Pharmacol 1994 46:1063-1069), with modifications, and is briefly described below.
# The cells are treated for a series of durations with the test drugs, such as alovudine, fosalvudine, zidovudine, abacavir etc or various combinations of alovudine/fosalvudine and zidovudine/abacavir. The various ratios indicated in the respective Tables. After 14 days of drug exposure, cells are collected. Total cellular DNA was prepared using the QiAamp DNA blood Mini kit (QIAGEN, Chatsworth, Calif.), following the supplier's instructions for the Qiagene Blood&Body Fluid Spin Protocol, and subject to DNA amplification.
# The probes of mitochondrial DNA Taqman and human nuclear DNA were prepared from Applied Biosystems, which employs an internal quenched DNA probe utilizing fluorescence resonance energy transfer (FRET) to generate a spectroscopic response due to 5′->3′ exonuclease activity of Taq DNA polymerase during DNA amplification. […] It is a fully integrated system for real-time detection of PCR using ABI PRISM 7700 and TaqMan reagents for the fluorogenic 5′ nuclease assay.
# The cell growth was controlled by cellular nuclear DNA ([…] ribosomal DNA).
# The above described assay was performed in the MT4 cell line derived from a T lymphocyte.
smiles,measurement,setting,value
"Cc1cn([C@H]2C[C@H](N=[N+]=[N-])[C@@H](CO)O2)c(=O)[nH]c1=O [zidovudine, 2′3′-dideoxy-3′-azido-thymidine]",Inhibition of mitochondrial DNA %,1 uM,0%
same,Inhibition of mitochondrial DNA %,3 uM,0%
same,% Reduction mt/n DNA,10 uM,0%
same,% reduction mt DNA,10 uM,0%
same,% reduction n DNA,10 uM,40%
same,Inhibition of mitochondrial DNA %,10 uM,0%
same,Ratio Mitochondrial: Nuclear DNA,10 uM,0.96
same,Relative no. copies mt DNA,10 uM,856782
same,Relative no. copies n DNA,10 uM,891446
same,% Reduction mt/n DNA,30 uM,0%
same,% reduction mt DNA,30 uM,0%
same,% reduction n DNA,30 uM,43%
same,"Inhibition of mitochondrial DNA, %",30 uM,0%
same,Mean qty (mitochondrial DNA),30 uM,1410000
same,Ratio Mitochondrial: Nuclear DNA,30 uM,1.19
same,Relative no. copies mt DNA,30 uM,993321
same,Relative no. copies n DNA,30 uM,836935
same,% Reduction mt/n DNA,60 uM,0%
same,% reduction mt DNA,60 uM,4%
same,% reduction n DNA,60 uM,40%
same,Ratio Mitochondrial: Nuclear DNA,60 uM,0.84
same,Relative no. copies mt DNA,60 uM,748730
same,Relative no. copies n DNA,60 uM,890663
"Cc1cn([C@H]2C[C@H](F)[C@@H](CO)O2)c(=O)[nH]c1=O [alovudine, 2′,3′-dideoxy-3′-fluorothymidine]",% Reduction mt/n DNA,0.1 uM,13%
same,% reduction mt DNA,0.1 uM,44%
same,% reduction n DNA,0.1 uM,35%
same,Inhibition of mitochondrial DNA %,0.1 uM,70%
same,"Inhibition of mitochondrial DNA, %",0.1 uM,40%
same,Mean qty mt DNA,0.1 uM,549900
same,Ratio Mitochondrial: Nuclear DNA,0.1 uM,0.45
same,Relative no. copies mt DNA,0.1 uM,434709
same,Relative no. copies n DNA,0.1 uM,956331
same,"Inhibition of mitochondrial DNA, %",0.2 uM,82%
same,Mean qty mt DNA,0.2 uM,187574
same,% Reduction mt/n DNA,0.3 uM,59%
same,% reduction mt DNA,0.3 uM,68%
same,% reduction n DNA,0.3 uM,22%
same,Inhibition of mitochondrial DNA %,0.3 uM,95%
same,Ratio Mitochondrial: Nuclear DNA,0.3 uM,0.21
same,Relative no. copies mt DNA,0.3 uM,247481
same,Relative no. copies n DNA,0.3 uM,1160000
same,% Reduction mt/n DNA,0.6 uM,89%
same,% reduction mt DNA,0.6 uM,88%
same,% reduction n DNA,0.6 uM,0%
same,Ratio Mitochondrial: Nuclear DNA,0.6 uM,0.06
same,Relative no. copies mt DNA,0.6 uM,96998
same,Relative no. copies n DNA,0.6 uM,1740000
same,Inhibition of mitochondrial DNA %,1 uM,100%
Nc1nc(NC2CC2)c2ncn([C@H]3C=C[C@@H](CO)C3)c2n1 [abacavir],"Inhibition of mitochondrial DNA, %",1 uM,18%
same,Mean qty mt DNA,1 uM,756544
same,"Inhibition of mitochondrial DNA, %",20 uM,51%
same,Mean qty mt DNA,20 uM,506181
